Test results reported in patent US9241943B2, “Oxathiazine derivatives as antibacterial and anticancer agents” (GEISTLICH PHARMA AG, priority 2012, dated 2016).
≈ marks a conversion by molar mass, not a printed value.

Legend:
[1] = test system: cancers identified herein; test: Administration to patients having cancers (Example 5); format: in vivo, human; conditions: Example 5, written in present tense
[2] = test system: human glioma cell line LN-229; test: Cytotoxicity assay (crystal violet) in LN-229 cells; format: cell-based; conditions: 24 h, high values correspond to high cell viability
Method: Cell lines: The human glioma cell line LN-229 was used as described previously (Rodak et al. 2005) as well as the human colon adenocarcinoma cell line SW480.
Cytotoxicity assay: Dissociated LN-229 cells were seeded into 96-well plates at a density of 10^4 cells per well in 100 μl of culture medium. Approximately 24 h later, when the cells had reached 70-80% confluency, the medium was changed and treatment with compound #2250 (4.0-1000 μg/ml), taurolidine (4.0-1000 μg/ml) or standard medium was started. Triplicate cultures were prepared for each sample. After 24 h of incubation at […], the remaining adherent viable cells were stained using crystal violet as described (Rodack et al. 2005). Cell viability was determined by measuring the absorbancy at 540 nm. The results are expressed as killing rate given by the difference between 100% of cells and percentage of cells surviving. EC50 values correspond to the concentration inducing 50% cell death.

[3] = test system: human glioma cell line LN-229; test: as above; format: cell-based
[4] = test system: murine SMA 560 bulk glioma cells; test: Cytotoxicity assay in murine SMA 560 bulk glioma cells; format: cell-based, mouse
Method: (§1) Tissue samples from high grade gliomas WHO grade IV from newly diagnosed patients (medium age of 54±10 years) were minced mechanically, digested enzymatically and the dissociated cells were filtered. The isolated tumor cells were cultured as bulk cells. Cancer Stem Cells (CSCs) were isolated by the formation of neurospheres under neurosphere conditions (using neurobasal medium) from the murine SMA 560 glioma cell line or from freshly isolated human glioblastoma cells.
Bulk glioma tumor cells were cultured and incubated with taurolidine or taurultam for 24h or 48h as described previously (Rodak et al., J. Neurosurg. 102, 1055-1068, 2005). CSCs were cultured for 7 days and subsequently exposed to taurolidine, taurultam or temozolamide for 24 hours. The number of remaining adherent cells were stained (crystal violet or Alamar Blue) and quantified by absorbance measurements (540 nm). Cell survival was expressed as the percentage of cells surviving relative to the number of cells surviving in untreated control cultures. […]
The mouse SMA560 glioma cell line was used to provide tumor bulk cells and CSCs. Following incubation of SMA560 bulk cells with various concentrations of taurolidine and taurultam (6.25, 12.5, 25, 50, 100, 200 μg/ml), cytotoxicity was determined after 24 h and 48 h of incubation.

[5] = test system: human glioblastoma bulk cells; conditions: cited from earlier work
[6] = test system: murine SMA560 glioma cancer stem cells (CSC); test: Cytotoxicity assay in murine SMA560 glioma cancer stem cells; format: cell-based, mouse; conditions: for sensitivity of CSCs relative to corresponding glioma bulk cells, based on EC50: murine SMA 560 CSCs vs bulk cells
Method: as §1
(§2) Bulk glioma tumor cells were cultured and incubated with taurolidine or taurultam for 24h or 48h as described previously (Rodak et al., J. Neurosurg. 102, 1055-1068, 2005). CSCs were cultured for 7 days and subsequently exposed to taurolidine, taurultam or temozolamide for 24 hours. The number of remaining adherent cells were stained (crystal violet or Alamar Blue) and quantified by absorbance measurements (540 nm). Cell survival was expressed as the percentage of cells surviving relative to the number of cells surviving in untreated control cultures. The results are given as % killing rate or EC50 as the dose required for half-maximal cytotoxicity.
Mouse CSCs were generated from the SMA560 glioma cell line and cultured for 7 days. The CSCs were treated with the same concentration of taurolidine and taurultam as above and cytotoxicity was determined after 24 hours.

[7] = test system: cancer stem cells (CSC) derived from four glioblastoma patients; format: cell-based, human
Method: as §1, §2
CSCs were isolated from glioblastoma tissue resected from four patients. The same range of concentrations of taurolidine and taurultam was applied as above and the cytotoxicity was measured after 24 hours of incubation with drug. […]

[8] = measured in patients; cited from earlier work

SMILES: O=S1(=O)CCNCO1 [A1]
- efficacy in treating cancers in patients [1]: effective in treating such cancers

SMILES: O=S1(=O)CCOCO1 [A3]
- efficacy in treating cancers in patients [1]: effective in treating such cancers

SMILES: O=S1(=O)CCN(CN2COCCS2(=O)=O)CN1 [B1]
- efficacy in treating cancers in patients [1]: effective in treating such cancers

SMILES: O=S1(=O)CCN(CN2CCS(=O)(=O)OC2)CN1 [B2]
- efficacy in treating cancers in patients [1]: effective in treating such cancers

SMILES: O=S1(=O)CCN(CN2CCS(=O)(=O)OC2)CO1 [B3]
- efficacy in treating cancers in patients [1]: effective in treating such cancers

SMILES: O=S1(=O)CCOCN1CN1COCCS1(=O)=O [Compound 2245]
- efficacy in treating cancers in patients [1]: effective in treating such cancers

SMILES: O=S1(=O)CCOCN1 [Compound 2250, Tetrahydro1,4,5-oxathiazin-4-dioxid]
- efficacy in treating cancers in patients [1]: effective in treating such cancers
- OD (absorbance at 540 nm) ([2]; 4 μg/ml): 1.477
- OD (absorbance at 540 nm) ([2]; 8 μg/ml): 1.527
- OD (absorbance at 540 nm) ([2]; 15.5 μg/ml): 1.482
- OD (absorbance at 540 nm) ([2]; 31 μg/ml): 1.482
- OD (absorbance at 540 nm) ([2]; 62.5 μg/ml): 0.372
- OD (absorbance at 540 nm) ([2]; 125 μg/ml): 0.199
- OD (absorbance at 540 nm) ([2]; 250 μg/ml): 0.120
- OD (absorbance at 540 nm) ([2]; 500 μg/ml): 0.141
- OD (absorbance at 540 nm) ([2]; 1000 μg/ml): 0.189
- effect on tumor cell morphology [3]: causes blebbing of tumor cells

SMILES: CN1COCCS1(=O)=O [Compound 2255]
- efficacy in treating cancers in patients [1]: effective in treating such cancers

SMILES: O=S1(=O)CCN(CN2CCS(=O)(=O)NC2)CN1 [Taurolidine, taurolidine]
- OD (absorbance at 540 nm) ([2]; 4 μg/ml): 1.530
- OD (absorbance at 540 nm) ([2]; 8 μg/ml): 1.478
- OD (absorbance at 540 nm) ([2]; 15.5 μg/ml): 1.434
- OD (absorbance at 540 nm) ([2]; 31 μg/ml): 1.132
- OD (absorbance at 540 nm) ([2]; 62.5 μg/ml): 0.317
- OD (absorbance at 540 nm) ([2]; 125 μg/ml): 0.305
- OD (absorbance at 540 nm) ([2]; 250 μg/ml): 0.165
- OD (absorbance at 540 nm) ([2]; 500 μg/ml): 0.098
- OD (absorbance at 540 nm) ([2]; 1000 μg/ml): 0.109
- EC50 ([4]; Mus musculus, SMA 560 bulk cells, no major difference between 24 h and 48 h): 34.6 µg/mL (≈ 122 µM)
- EC50 cytotoxicity [5]: ~50 µg/mL (≈ 176 µM)
- sensitivity of CSCs relative to corresponding glioma bulk cells, based on EC50 [6]: about 3 fold

SMILES: O=S1(=O)CCNCN1 [Taurultam, taurultam]
- EC50 cytotoxicity [4]: 19.3 µg/mL (≈ 142 µM)
- EC50 cytotoxicity [5]: ~50 µg/mL (≈ 367 µM)
- EC50 cytotoxicity [6]: 10 µg/mL (≈ 73.4 µM)
- sensitivity of CSCs relative to corresponding glioma bulk cells, based on EC50 [6]: ~2 fold

SMILES: Cn1nnc2c(C(N)=O)ncn2c1=O [Temozolamide, temozolamide]
- Cytotoxicity EC50 24 h, Mean ± SD [7]: 68.5 ± 26 µg/mL
- peak plasma levels [8]: 13.7 µg/mL
